For one assay, the target named is T1, K-RasG12V/CaM (Homo sapiens, UniProt P0DP23).
T1 construct: expressed in transfected cells; host or cells: HEK293-EBNA
The experiment in a line: Rluc8-K-RasG12V/GFP2-CaM interaction BRET in HEK293-EBNA cells. The class given is cell-based. Conditions: for IC50: 24-h exposure, A/D plasmid ratio 9/1, read-out: IC50 of Rluc8-K-RasG12V/GFP2-CaM BRET signal. As for the experimental part:
BRET assays were essentially performed as described by others ([Lavoie et al., 2013]; [Bery et al., 2018]). About 100,00–150,000 HEK293-EBNA ([Meissner et al., 2001]) cells were seeded per well of a 12-well plate in 1 ml of DMEM containing 10% FBS and 2 mM L-glutamine and were grown for 24 h. Next day, Rluc8-tagged donor and GFP2-tagged acceptor constructs were transfected into cells using a jetPRIME transfection reagent (cat. no. 114-75, Polyplus). Each well was transfected with about 1 μg of plasmid DNA using 3 μl of the jetPRIME reagent. For BRET donor saturation titration experiments, the concentration of donor plasmid (25 ng) was kept constant, and the concentration of acceptor plasmid was increased from 0 to 500 ng for RasG12V BRET pairs and 0–1,000 ng for K-Ras/CaM BRET pairs. The empty pcDNA3.1(-) plasmid was used to top-up the total DNA load per transfection. After 24 h of transfection, cells were treated with compounds or vehicle control (DMSO 0.2% v/v in a growth medium) at the specified concentration for 24 h or the stipulated time period in case of the time-course experiments. The cells from one well of a 12-well plate were collected, washed, and re-plated in PBS (cat. no. 14190-094, Gibco, Thermo Fisher Scientific) on flat bottom, white 96-well plates (cat. no. 236108, Nunc, Thermo Fisher Scientific) as four technical replicates containing 90 μl of cell suspension per well. Then fluorescence intensity followed by BRET readings were carried out on a Clariostar (BMG Labtech) plate reader at 25°C. The fluorescence intensity (RFU) of GFP2 was measured with excitation at 405 ± 10 nm and emission 515 ± 10 nm; it is proportional to the acceptor concentration [acceptor]. BRET readings were taken well by well by adding 10 μl of 100 μM coelenterazine 400a (cat. no. C-320, GoldBio), the Rluc8 substrate to each well (final concentration of 10 μM) using the injector present in the plate reader. Luminescence emission intensities were simultaneously recorded at 410 ± 40 nm (RLU, proportional to [donor]) and 515 ± 15 nm (BRET signal).
The raw BRET ratio was calculated as the BRET signal measured at 515 nm divided by the emission signal measured at 410 nm (RLU). The BRET ratio was obtained by subtracting the raw BRET ratio by a background BRET signal measured for cells expressing only the donor ([Bacart et al., 2008]) as indicated in the formula below:
For BRET donor saturation titration experiments, the BRET ratio was plotted against the [acceptor]/[donor] ratio. Technical repeat data points were averaged, and data points from all biological repeats were collected into one graph for subsequent fitting. The BRET ratio vs. relative expression data were fitted using a binding saturation equation in the Prism (GraphPad) software to obtain BRETmax and BRET50 using the equation y=BRETmax×x/BRET50+x , where x is the relative expression and y is the BRET ratio. BRETmax represents the maximum saturation BRET signal and depends on the structural parameters (distance, orientation) of the BRET complex. BRET50 corresponds to the ratio of the acceptor construct over the donor construct required to attain 50% of the maximum BRET signal and is a measure of the effective relative affinity between the interacting BRET pair ([Marullo and Bouvier, 2007]).

The target of a further assay is calmodulin (CaM) (Bos taurus, UniProt P62157). The experiment in a line: Fluorescence polarization assay, displacement of F-PMCA peptide from CaM. As to conditions: for kinact/KI: read-out: k2/Ki second-order rate constant.
For assay [1], the target named is T2, mutCaM (CaM with K75Q, K77Q, and K148Q mutations) (Homo sapiens, UniProt P0DP23, K76Q/K78Q).
T2 construct: made in house; host or cells: E. coli BL21 Star (DE3)pLysS
Briefly: Fluorescence polarization assay with F-CaMKII peptide and His-mutCaM. The class given is binding. Conditions: 50 nM His-mutCaM, 5 nM F-CaMKII, compared to wt CaM. The procedure: Our numbering of CaM follows ([Kong Au and Chow Leung, 1998]) with Ala being the first amino acid in human CaM, as the N-terminal methionine of CaM is removed in most organisms ([Halling et al., 2016]). […] At A600 of 0.6–0.8, the culture was induced with 0.5 mM of isopropyl β-D-thiogalactopyranoside and expressed for 16 h at 25°C. Cells were collected by centrifugation and incubated on ice for 30 min. The cell suspension was sonicated in a lysis buffer (20 mM HEPES, pH 7.6, 150 mM NaCl, 5 mM MgCl2, 0.5 mg/ml lysozyme, and DNase I). The lysates were clarified by centrifugation at 18,000 g for 30 min at 4°C. The soluble fractions were subjected to protein purification.

The test system of another assay is HeLa cells. Briefly: Centrosome number / multipolar phenotype in synchronized HeLa cells expressing mCherry-CaM. The class given is cell-based. Conditions: 2 h; calmidazolium 20 μM, 1 50 μM, with MG132 10 μM. As for the experimental part: To evaluate the effect of compounds on centrosome numbers during mitosis, HeLa cells were seeded in 6-well plates onto sterile coverslips and cotransfected with 0.5 μg of pmCherry-CaM and 1.5 μg pEGFP-Centrin1 plasmids using 4 μl of jetPRIME. Twenty-four hours after the transfection, cells were synchronized with 60 ng/ml of nocodazole for 16 h. After the removal of nocodazole, the cells were treated with the […] MG132 (10 μM) to block the cells in metaphase and either calmidazolium (20 μM), 1 (50 μM), or DMSO (0.5%) for 2 h. Cells were then fixed with 4% paraformaldehyde in PBS for 10 min at ambient temperature. After washing with PBS-Tween 0.05%, DNA was stained with a 1 μg/ml solution of DAPI diluted in PBS for 10 min. Coverslips were mounted on glass slides using Vectashield, and images were captured on a spinning disk confocal microscope. Images were analyzed with the ImageJ software, and the number of transfected mitotic cells with multipolar and normal bipolar phenotypes was counted (between 35 and 70 cells per test condition). The percentage multipolar vs. bipolar cells was computed to generate the plot using the Prism software.

Procedure for calmodulin (CaM): Compounds were threefold-diluted in an assay buffer (20 mM Tris Cl pH 7.5, 50 mM NaCl, 1 mM CaCl2, and 0.005% Tween 20), and a complex of 100 nM CaM and 10 nM F-PMCA peptide was added. […] Then the plate was incubated overnight at 4°C, and the next day, final readings were taken after a total of 24 h incubation. The fluorescence anisotropy was calculated and plotted against the logarithm of the compound concentration and fit to the log inhibitor vs. response–variable slope (four parameters) equation in Prism (GraphPad).
The potency and selectivity of a covalent inhibitor are governed by two parameters, namely, Ki, the dissociation constant of the initial non-covalent complex, and k2, the rate of the subsequent covalent bond-forming reaction as given in the chemical equation
E and I denote a protein target and its covalent inhibitor, respectively. E ⋅ I is the initial non-covalent complex, and E – I is the final covalent complex. […] This was repeated for several inhibitor concentrations. Then, kobs was plotted against the concentration of the inhibitor, and the data were fit to a hyperbolic equation kobs=k2×[I]/Ki+[I] to obtain Ki and k2. The ratio of k2/Ki represents the second-order rate constant of the reaction of the covalent inhibitor with the target.

With `CC(C)=C[C@H]1C[C@H](C)[C@]2(CC[C@]3(C)C[C@H]4[C@H](C(=O)C[C@@]4(C)O)/C(C=O)=C\C[C@H]32)O1` [OphA, Ophiobolin A, reference compound], at K-RasG12V/CaM, the IC50 amounted to 12 ± 2 µM. The “effect on Rluc8-K-RasG12V/GFP2-CaM BRET signal, single concentration” value on K-RasG12V/CaM (calmidazolium 20 μM, prostratin 20 μM, OphA 5 μM) is “significantly reduced the BRET signal”. Moreover, on calmodulin (CaM), the affinity corresponds to a Ki of 79 µM and the kinact/KI is 3.89 M⁻¹ s⁻¹. Also, the “binding to mutCaM over time” value in assay [1] is recorded as “no binding was observed to mutCaM”.
`CC(C)c1ccc2cc(C(F)(F)F)c(=O)c3c(N4CCCCC4)c(C=O)c(c1)c23` [Compound 1]: on K-RasG12V/CaM, the IC50 worked out at 31 ± 2 µM. In addition, at calmodulin (CaM), the affinity, expressed as Kd, was 0.87 µM; the affinity corresponds to a Ki of 52 µM; the kinact/KI is 2.78 M⁻¹ s⁻¹. Also, on calmodulin (CaM) (Kd 0.87 μM vs […]), the “affinity difference between Calmirasone1 and calmidazolium” value amounted to 64 fold. The “affinity for CaM relative to OphA” value on calmodulin (CaM) (after 24-h incubation, higher affinity than OphA) is “fourfold”. In addition, the “multipolar phenotype (multiple mCherry-CaM-positive centrosomes)” value with HeLa cells is recorded as “significantly pronounced”. The “binding to mutCaM over time” value in assay [1] is recorded as “displayed binding to mutCaM”.

Source of the values: paper PMC8296985, “A Covalent Calmodulin Inhibitor as a Tool to Study Cellular Mechanisms of K-Ras-Driven Stemness” (Frontiers in Cell and Developmental Biology, 2021).
